According to patent US20210352905A1, “COMPOSITIONS AND METHODS TO DISINFECT, TREAT AND PREVENT MICROBIAL INFECTIONS” (WIAB WATER INNOVATION AB, priority 2020, published 2021):

Legend:
pre-formed biofilm = conditions: Halstead et al, PLOS ONE (2015); cited from earlier work
S. aureus biofilms = conditions: 1% acetic acid alone, FIG. 2
human rhinovirus (HRV) = conditions: low concentration hypochlorous acid nasal irrigation solution, in vitro, nasal epithelial cells; cited from earlier work
avian influenza virus = conditions: similar formulations, in vitro; cited from earlier work
[1] = cited from earlier work

| SMILES | concentrations of acetic acid that eradicated a pre-formed biofilm (pre-formed biofilm) | effect on the biofilm (S. aureus biofilms) | virus-killing effect (human rhinovirus (HRV)) | effects against avian influenza virus (avian influenza virus) | pKa [1] |
| --- | --- | --- | --- | --- | --- |
| CC(=O)O [acetic acid] | 0.10% to 2.5 | only minor effect |  |  |  |
| OCl [hypochlorous acid] |  |  | significant virus-killing effect | good effects | about 7 |
